Experiment [1] has as its system HEK293. Put plainly: IC50 for inhibition of ZIKV NS1 production. The protocol: (§1)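 HEK293 cells in 1536-well plates were pre-treated with compound for 1 h, infected with ZIKV (MOI 1) for 24 h, and NS1 antigen (intra- plus extracellular) was measured by TR-FRET. Confirmation used 11-point 1:3 dilutions, and IC50 and maximal inhibition were fitted in GraphPad Prism.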

Experiment [2] concerns HEK293. Put plainly: maximal inhibition of ZIKV NS1 production (% inhibition); higher = stronger antiviral effect. The protocol: as §1
Experiment [3] deals with HEK293. Put plainly: cytotoxicity IC50 (ATP content, uninfected cells); higher = less cytotoxic. To be noted: infection: none.

As for `OCCN1CCN(CCCN2c3ccccc3Sc3ccc(C(F)(F)F)cc32)CC1`, the concentration for half-maximal inhibition (IC50) in the experiment with HEK293 [1] is 25 µM. Also, the maximal inhibition with HEK293 [2] worked out at 84. Besides, the “cytotoxicity IC50” value in the experiment on HEK293 [3] is above 100 µM.
Regarding `C[C@@H](Oc1cc(-n2cnc3ccc(CN4CCN(C)CC4)cc32)sc1C(N)=O)c1ccccc1C(F)(F)F`, the IC50 in the experiment with HEK293 [1] stood at 14 µM. In the experiment with HEK293 [2], the maximal inhibition came out at 98. Moreover, the “cytotoxicity IC50” value in the experiment on HEK293 [3] was above 100 µM.
In the experiment on HEK293 [1], `CC(C)(O)/C=C/C(=O)[C@](C)(O)[C@H]1[C@H](O)C[C@@]2(C)[C@@H]3CC=C4[C@@H](C=C(O)C(=O)C4(C)C)[C@]3(C)C(=O)C[C@]12C` came in with a half-inhibitory concentration (IC50) of 45 µM. In the experiment on HEK293 [2], this compound yielded a maximal inhibition of 52. Moreover, the “cytotoxicity IC50” value with HEK293 [3] turned out to be 3 µM.
As to `Cc1c(O)cccc1C(=O)N[C@@H](CSc1ccccc1)[C@H](O)CN1C[C@H]2CCCC[C@H]2C[C@H]1C(=O)NC(C)(C)C`, in the experiment with HEK293 [1], the IC50 was 24 µM. This compound returned a maximal inhibition in the experiment on HEK293 [2] of 84. Also, in the experiment with HEK293 [3], the “cytotoxicity IC50” value is above 100 µM.
`CC(C)c1nn(-c2c(Cl)cccc2Cl)c2nc(Cc3ccc(OCCO)cc3)[nH]c(=O)c12` came in with a half-maximal inhibitory concentration (IC50) in the experiment on HEK293 [1] of 0.27 µM. The compound further registered a maximal inhibition with HEK293 [2] of 91. In addition, the “cytotoxicity IC50” value with HEK293 [3] was above 100 µM.
In turn, `Nc1nc(F)nc2c1ncn2[C@@H]1O[C@H](CO)[C@@H](O)[C@H]1O` displayed an IC50 with HEK293 [1] of 2.9 µM. In the experiment with HEK293 [2], this compound yielded a maximal inhibition of 98. For the same compound, the “cytotoxicity IC50” value in the experiment with HEK293 [3] worked out at 11 µM.
In the experiment with HEK293 [1], `CC[C@@]1(O)C(=O)OCc2c1cc1n(c2=O)Cc2cc3ccccc3nc2-1` had a concentration for half-maximal inhibition (IC50) of 0.026 µM. The compound also had a maximal inhibition in the experiment with HEK293 [2] of 82. The “cytotoxicity IC50” value in the experiment on HEK293 [3] is above 100 µM.
Taken in the same sequence, the figures for `COc1ccc(-c2ccc3ncc4c(c3c2)n(-c2ccc(N3CCNCC3)c(C(F)(F)F)c2)c(=O)n4C)cn1` were 1.6 µM, 102 and 20 µM.
With `C[C@]12O[C@H](C[C@]1(O)CO)n1c3ccccc3c3c4c(c5c6ccccc6n2c5c31)CNC4=O`, in the experiment on HEK293 [1], the IC50 is 1.7 µM. The compound further showed a maximal inhibition in the experiment on HEK293 [2] of 58. Besides, the “cytotoxicity IC50” value in the experiment on HEK293 [3] worked out at 15 µM.
In the experiment with HEK293 [1], `Cc1nc2cnc3ccc(C#Cc4cccnc4)cc3c2n1-c1ccc(C(C)(C)C#N)cc1` gave an IC50 of 1.4 µM. The maximal inhibition in the experiment with HEK293 [2] turned out to be 102. Also, the “cytotoxicity IC50” value with HEK293 [3] was found to be 10 µM.
For the compound `CC(C)c1cnn2c(NCc3ccccc3)cc(N[C@@H](CO)[C@H](O)CO)nc12`, the IC50 in the experiment with HEK293 [1] was 1.2 µM. In the experiment with HEK293 [2], this compound showed a maximal inhibition of 87. Further, the “cytotoxicity IC50” value with HEK293 [3] was above 100 µM.
In the experiment on HEK293 [1], `CN[C@@H]1C[C@H]2O[C@@](C)([C@@H]1OC)n1c3ccccc3c3c4c(c5c6ccccc6n2c5c31)C(=O)N[C@H]4O` returned an IC50 of 0.76 µM. Moreover, the maximal inhibition in the experiment on HEK293 [2] turned out to be 96. Also, the “cytotoxicity IC50” value with HEK293 [3] turned out to be 100 µM.
In the experiment on HEK293 [1], `O=C(Cc1ccc(-c2ccc(OCCN3CCOCC3)cc2)cn1)NCc1ccccc1` had a half-maximal inhibitory concentration (IC50) of 0.48 µM. In addition, in the experiment with HEK293 [2], the maximal inhibition is 50. In the experiment on HEK293 [3], the “cytotoxicity IC50” value came to 19 µM.
Taken in the same sequence, the figures for `CCOC(=O)C1(c2ccccc2)CCN(CCC(C#N)(c2ccccc2)c2ccccc2)CC1` were 6 µM, 105 and 9.2 µM.
In turn, `CC1=C(CO)C(=O)O[C@@H]([C@@H](C)[C@H]2CC[C@H]3[C@@H]4C[C@H]5O[C@]56[C@@H](O)C=CC(=O)[C@]6(C)[C@H]4CC[C@]23C)C1` had an IC50 with HEK293 [1] of 2.8 µM. In addition, in the experiment with HEK293 [2], the maximal inhibition turned out to be 102. Also, the “cytotoxicity IC50” value in the experiment on HEK293 [3] came to 2.8 µM.
In the experiment on HEK293 [1], `Nc1ccc(-c2ccc3ncc4ccc(=O)n(-c5cccc(C(F)(F)F)c5)c4c3c2)cn1` yielded an IC50 of 0.72 µM. For the same compound, the maximal inhibition in the experiment with HEK293 [2] was 90. The “cytotoxicity IC50” value in the experiment on HEK293 [3] was above 100 µM.
Consider `COc1c(C)c2c(c(O)c1C/C=C(\C)CCC(=O)O)C(=O)OC2`, for which, in the experiment on HEK293 [1], the half-maximal inhibitory concentration (IC50) was 0.54 µM. The compound further returned a maximal inhibition in the experiment with HEK293 [2] of 106. Further, in the experiment with HEK293 [3], the “cytotoxicity IC50” value was above 100 µM.
`O=C1c2c(O)ccc(O)c2C(=O)c2c(NCCNCCO)ccc(NCCNCCO)c21` displayed an IC50 in the experiment with HEK293 [1] of 0.23 µM. The maximal inhibition in the experiment on HEK293 [2] was found to be 100. Also, the “cytotoxicity IC50” value in the experiment with HEK293 [3] is 50 µM.
For the compound `CO[C@@H]1[C@@H](OC)[C@H](C)[C@@](O)(CC(=O)O)O[C@H]1[C@H](C)[C@H]1O[C@@]2(CC[C@@](C)([C@H]3CC[C@@](C)([C@@H]4O[C@@H]([C@H]5O[C@](C)(O)[C@H](C)C[C@@H]5C)C[C@@H]4O[C@@H]4C[C@H](OC)[C@@H](OC)[C@H](C)O4)O3)O2)C[C@H](O)[C@H]1C`, in the experiment with HEK293 [1], the IC50 worked out at 1.4 µM. The maximal inhibition in the experiment with HEK293 [2] was determined as 100. In addition, the “cytotoxicity IC50” value with HEK293 [3] turned out to be 1.5 µM.
On to `Cn1c(=O)c(-c2c(Cl)cccc2Cl)cc2cnc(Nc3ccc(N4CCOCC4)cc3)nc21`, for which the concentration for half-maximal inhibition (IC50) in the experiment on HEK293 [1] came out at 2.1 µM. This compound registered a maximal inhibition in the experiment with HEK293 [2] of 102. Moreover, the “cytotoxicity IC50” value with HEK293 [3] came out at 6 µM.
Take `Cc1n[nH]c2ccc(-c3cncc(OC[C@@H](N)Cc4c[nH]c5ccccc45)c3)cc12`: the half-maximal inhibitory concentration (IC50) in the experiment on HEK293 [1] stood at 8.5 µM. Moreover, in the experiment on HEK293 [2], the maximal inhibition was found to be 103. The “cytotoxicity IC50” value in the experiment on HEK293 [3] is above 100 µM.
Compound `CC[C@@H](C(=O)[C@@H](C)[C@@H](O)[C@H](C)[C@@H]1O[C@@H]([C@@H](CC)C(=O)O)CC[C@@H]1C)[C@H]1O[C@]2(C=C[C@@H](O)[C@]3(CC[C@@](C)([C@H]4CC[C@](O)(CC)[C@H](C)O4)O3)O2)[C@H](C)C[C@@H]1C` came in with an IC50 in the experiment with HEK293 [1] of 17 µM. In the experiment on HEK293 [2], this compound registered a maximal inhibition of 106. In the experiment with HEK293 [3], the “cytotoxicity IC50” value is 27 µM.
`COc1cc(NS(C)(=O)=O)ccc1Nc1c2ccccc2nc2ccccc12` yielded a concentration for half-maximal inhibition (IC50) in the experiment on HEK293 [1] of 1.4 µM. This compound showed a maximal inhibition with HEK293 [2] of 105. Also, the “cytotoxicity IC50” value in the experiment with HEK293 [3] was 70 µM.
`CO[C@H]1C(=O)[C@]2(C)[C@@H](OC)C[C@H]3OC[C@@]3(OC(C)=O)[C@H]2[C@H](OC(=O)c2ccccc2)[C@]2(O)C[C@H](OC(=O)[C@H](O)[C@@H](NC(=O)OC(C)(C)C)c3ccccc3)C(C)=C1C2(C)C` came in with an IC50 in the experiment with HEK293 [1] of 1.8 µM. The maximal inhibition with HEK293 [2] was found to be 68. Moreover, the “cytotoxicity IC50” value in the experiment with HEK293 [3] is above 100 µM.
`C[C@@H]1C[C@@H]([C@H](O)CC2CC(=O)NC(=O)C2)C(=O)[C@@H](C)C1`: the 50% inhibitory concentration (IC50) in the experiment on HEK293 [1] came to 0.29 µM. Moreover, the maximal inhibition in the experiment with HEK293 [2] is 102. Moreover, in the experiment on HEK293 [3], the “cytotoxicity IC50” value is above 100 µM.
In turn, `C=C1C(=O)[C@]23[C@H](O)[C@H]1CC[C@H]2[C@@]12CO[C@]3(O)[C@@H](O)[C@@H]1C(C)(C)CC[C@@H]2O` yielded an IC50 in the experiment on HEK293 [1] of 17 µM. Further, in the experiment with HEK293 [2], the maximal inhibition is 108. In the experiment on HEK293 [3], the “cytotoxicity IC50” value turned out to be 40 µM.
Turning to `Cn1c2ccccc2c2c3c(c4c5ccccc5n(CCC#N)c4c21)CNC3=O`, in the experiment on HEK293 [1], the IC50 was 0.94 µM. This compound gave a maximal inhibition in the experiment with HEK293 [2] of 82. The “cytotoxicity IC50” value with HEK293 [3] was determined as 20 µM.
Consider `COc1cc2nc(-c3cc(F)ccc3O)nc(N[C@@H]3CNC[C@H]3C(C)(C)O)c2cc1OC`, for which the IC50 in the experiment with HEK293 [1] was determined as 12 µM. In the experiment with HEK293 [2], this compound came in with a maximal inhibition of 98. Moreover, the “cytotoxicity IC50” value in the experiment on HEK293 [3] was found to be 45 µM.
Taken in the same sequence, the figures for `CC[C@]1(O)C[C@H]2CN(CCc3c([nH]c4ccccc34)[C@@](C(=O)OC)(c3cc4c(cc3OC)N(C=O)[C@H]3[C@@](O)(C(=O)OC)[C@H](OC(C)=O)[C@]5(CC)C=CCN6CC[C@]43[C@@H]65)C2)C1` were 0.16 µM, 55 and above 100 µM.
In the experiment with HEK293 [1], `C/C=C(/C)C(=O)O[C@H]1C(C)=C2[C@H]([C@@H]1OC(=O)CCCCCCC)[C@@](C)(OC(C)=O)C[C@H](OC(=O)CCC)[C@@]1(O)[C@H]2OC(=O)[C@@]1(C)O` returned an IC50 of 0.17 µM. Further, in the experiment with HEK293 [2], the maximal inhibition amounted to 93. The “cytotoxicity IC50” value in the experiment on HEK293 [3] came to 40 µM.

These data come from the supplement of paper PMC8498969.
